This test concerns L1210 leukemia ip in BDF1 mice, survival T/C. As to the kind of experiment: NCI In Vivo Anticancer Drug Screen. Data for tumor model L1210 Leukemia (intraperitoneal) in B6D2F1 (BDF1) mice. As to conditions: endpoint: mean survival time, higher = longer survival. A digest of the protocol: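 Survival endpoint. Drug-treated group vs vehicle group, expressed as T divided by C. Tumor passaged by transplantation.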

Inconclusive results and toxic doses are left out.

Experimental findings from PubChem BioAssay AID248 (DTP/NCI, 2004) are described below.

Take `CCCCN(C)N=Nc1c(C(N)=O)n[nH]c1C`: the T/C (dose: 1.0 mg/kg/injection, schedule: Q03HX008 (ip), vehicle: Klucel (hydroxypropylcellulose) (HPC)) was 93 % of control; the T/C (dose: 2.0 mg/kg/injection, schedule: Q03HX008 (ip), vehicle: Klucel (hydroxypropylcellulose) (HPC)) is 99 % of control; the T/C (dose: 4.0 mg/kg/injection, schedule: Q03HX008 (ip), vehicle: Klucel (hydroxypropylcellulose) (HPC)) is 100 % of control; the T/C (dose: 4.0 mg/kg/injection, schedule: Q03HX016 (ip), vehicle: Klucel (hydroxypropylcellulose) (HPC)) is 99 % of control; the T/C (dose: 4.0 mg/kg/injection, schedule: Q03HX024 (ip), vehicle: Klucel (hydroxypropylcellulose) (HPC)) is 107 % of control; the T/C (dose: 8.0 mg/kg/injection, schedule: Q01DX009 (ip), vehicle: Klucel (hydroxypropylcellulose) (HPC)) was 102 % of control. In addition, the T/C is, setting by setting: (dose: 8.0 mg/kg/injection, schedule: Q03HX008 (ip), vehicle: Klucel (hydroxypropylcellulose) (HPC)) 102 % of control; (dose: 8.0 mg/kg/injection, schedule: Q03HX016 (ip), vehicle: Klucel (hydroxypropylcellulose) (HPC)) 100 % of control; (dose: 8.0 mg/kg/injection, schedule: Q03HX024 (ip), vehicle: Klucel (hydroxypropylcellulose) (HPC)) 108 % of control; (dose: 8.8 mg/kg/injection, schedule: Q01DX007 (ip), vehicle: Klucel (hydroxypropylcellulose) (HPC)) 114 % of control; (dose: 10.0 mg/kg/injection, schedule: Q01DX009 (ip), vehicle: Klucel (hydroxypropylcellulose) (HPC)) 109 % of control; (dose: 13.2 mg/kg/injection, schedule: Q01DX007 (ip), vehicle: Klucel (hydroxypropylcellulose) (HPC)) 120 % of control. The T/C was 111 % of control (dose: 15.0 mg/kg/injection, schedule: Q01DX009 (ip), vehicle: Klucel (hydroxypropylcellulose) (HPC)); 114 % of control (dose: 16.0 mg/kg/injection, schedule: Q01DX009 (ip), vehicle: Klucel (hydroxypropylcellulose) (HPC)); 119 % of control (dose: 16.0 mg/kg/injection, schedule: Q03HX016 (ip), vehicle: Klucel (hydroxypropylcellulose) (HPC)); 101 % of control (dose: 32.0 mg/kg/injection, schedule: Q01DX001 (ip), vehicle: Klucel (hydroxypropylcellulose) (HPC)); 105 % of control (dose: 32.0 mg/kg/injection, schedule: Q03HX024 (ip), vehicle: Klucel (hydroxypropylcellulose) (HPC)); 105 % of control (dose: 32.0 mg/kg/injection, schedule: Q04DX003 (ip), vehicle: Klucel (hydroxypropylcellulose) (HPC)). The T/C reads like this: (dose: 32.0 mg/kg/injection, schedule: Q08DX002 (ip), vehicle: Klucel (hydroxypropylcellulose) (HPC)) 105 % of control; (dose: 45.0 mg/kg/injection, schedule: Q01DX009 (ip), vehicle: Klucel (hydroxypropylcellulose) (HPC)) 150 % of control; (dose: 64.0 mg/kg/injection, schedule: Q01DX001 (ip), vehicle: Klucel (hydroxypropylcellulose) (HPC)) 105 % of control; (dose: 64.0 mg/kg/injection, schedule: Q04DX003 (ip), vehicle: Klucel (hydroxypropylcellulose) (HPC)) 119 % of control; (dose: 64.0 mg/kg/injection, schedule: Q08DX002 (ip), vehicle: Klucel (hydroxypropylcellulose) (HPC)) 115 % of control; (dose: 67.5 mg/kg/injection, schedule: Q01DX009 (ip), vehicle: Klucel (hydroxypropylcellulose) (HPC)) 113 % of control. The T/C was 121 % of control (dose: 128.0 mg/kg/injection, schedule: Q01DX001 (ip), vehicle: Klucel (hydroxypropylcellulose) (HPC)); 124 % of control (dose: 128.0 mg/kg/injection, schedule: Q08DX002 (ip), vehicle: Klucel (hydroxypropylcellulose) (HPC)); 124 % of control (dose: 177.0 mg/kg/injection, schedule: Q01DX001 (ip), vehicle: carboxymethylcellulose (CMC)).
In the case of `Clc1ccc2c(CBr)ccnc2c1`, the T/C is 98 % of control (dose: 100.0 mg/kg/injection, schedule: Q01DX001 (ip), vehicle: saline) and 104 % of control (dose: 200.0 mg/kg/injection, schedule: Q01DX001 (ip), vehicle: saline).
As to `C/C(N=Nc1ccccc1[N+](=O)[O-])=N\Nc1ccccc1`, the T/C (dose: 50.0 mg/kg/injection, schedule: Q01DX009 (ip), vehicle: Klucel (hydroxypropylcellulose) (HPC)) was 95 % of control; the T/C (dose: 100.0 mg/kg/injection, schedule: Q01DX009 (ip), vehicle: Klucel (hydroxypropylcellulose) (HPC)) is 97 % of control; the T/C (dose: 200.0 mg/kg/injection, schedule: Q01DX009 (ip), vehicle: Klucel (hydroxypropylcellulose) (HPC)) is 95 % of control; the T/C (dose: 400.0 mg/kg/injection, schedule: Q01DX009 (ip), vehicle: Klucel (hydroxypropylcellulose) (HPC)) was 95 % of control.
Turning to `CC(=O)[O][Hg][CH]1Cc2ccccc2O1` (stereo not given), under “dose: 15.0 mg/kg/injection, schedule: Q01DX001 (ip), vehicle: carboxymethylcellulose (CMC)”, the T/C is 94 % of control.
As to `COC(CC(=O)N1Cc2cc3ccccc3nc2/C1=C/c1ccco1)OC`, the T/C (dose: 100.0 mg/kg/injection, schedule: Q04DX003 (ip), vehicle: saline with Tween-80) was 104 % of control; the T/C (dose: 200.0 mg/kg/injection, schedule: Q04DX003 (ip), vehicle: saline with Tween-80) was 96 % of control; the T/C (dose: 400.0 mg/kg/injection, schedule: Q04DX003 (ip), vehicle: saline with Tween-80) was 98 % of control.
`CCNC(=O)Nc1cccc(NC(=O)C(=O)O)c1` (tested in a mixture with another compound): the T/C reads like this: (dose: 100.0 mg/kg/injection, schedule: Q01DX001 (ip), vehicle: gum acacia) 87 % of control; (dose: 200.0 mg/kg/injection, schedule: Q01DX001 (ip), vehicle: gum acacia) 97 % of control; (dose: 400.0 mg/kg/injection, schedule: Q01DX001 (ip), vehicle: gum acacia) 96 % of control.
With `CC(C)c1ccc(NC(=O)Nc2cc(Cl)ccc2Cl)cc1`, the T/C was 89 % of control (dose: 100.0 mg/kg/injection, schedule: Q01DX009 (ip), vehicle: gum acacia); 89 % of control (dose: 200.0 mg/kg/injection, schedule: Q04DX003 (ip), vehicle: gum acacia); 89 % of control (dose: 400.0 mg/kg/injection, schedule: Q01DX009 (ip), vehicle: gum acacia); 87 % of control (dose: 400.0 mg/kg/injection, schedule: Q04DX003 (ip), vehicle: gum acacia).
Regarding `CN(C)CCNCC(=O)CC(O)(C(F)(F)F)C(F)(F)F`, the T/C (dose: 100.0 mg/kg/injection, schedule: Q01DX001 (ip), vehicle: Klucel (hydroxypropylcellulose) (HPC)) is 96 % of control; the T/C (dose: 100.0 mg/kg/injection, schedule: Q04DX003 (ip), vehicle: Klucel (hydroxypropylcellulose) (HPC)) was 108 % of control; the T/C (dose: 200.0 mg/kg/injection, schedule: Q01DX001 (ip), vehicle: Klucel (hydroxypropylcellulose) (HPC)) is 109 % of control; the T/C (dose: 200.0 mg/kg/injection, schedule: Q04DX003 (ip), vehicle: Klucel (hydroxypropylcellulose) (HPC)) is 97 % of control; the T/C (dose: 400.0 mg/kg/injection, schedule: Q01DX001 (ip), vehicle: Klucel (hydroxypropylcellulose) (HPC)) is 104 % of control; the T/C (dose: 400.0 mg/kg/injection, schedule: Q04DX003 (ip), vehicle: Klucel (hydroxypropylcellulose) (HPC)) was 113 % of control.
